Molecules are shown by their SMILES. Where a name gives a salt, the structure may show the parent alone.

T1 sequence (P05164 279-745 limits assumed): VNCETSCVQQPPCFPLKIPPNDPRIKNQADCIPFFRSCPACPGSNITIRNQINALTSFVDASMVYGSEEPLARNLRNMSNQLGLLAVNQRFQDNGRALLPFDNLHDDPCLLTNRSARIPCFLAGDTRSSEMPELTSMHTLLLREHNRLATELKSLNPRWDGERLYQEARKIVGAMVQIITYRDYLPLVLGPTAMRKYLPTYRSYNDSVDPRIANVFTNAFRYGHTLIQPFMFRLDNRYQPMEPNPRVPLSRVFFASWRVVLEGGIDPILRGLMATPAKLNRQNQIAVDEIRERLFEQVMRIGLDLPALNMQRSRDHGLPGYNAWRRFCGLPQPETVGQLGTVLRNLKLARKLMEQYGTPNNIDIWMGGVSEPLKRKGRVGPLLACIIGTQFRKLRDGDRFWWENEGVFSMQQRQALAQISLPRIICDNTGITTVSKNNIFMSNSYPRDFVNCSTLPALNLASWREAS
T1 sequence (P05164 165-273 limits assumed): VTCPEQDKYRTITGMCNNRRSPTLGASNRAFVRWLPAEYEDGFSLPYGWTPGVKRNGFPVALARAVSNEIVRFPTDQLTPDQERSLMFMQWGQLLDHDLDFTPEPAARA

The first experiment addresses T1, MPO (purified from human polynuclear leukocytes) (Homo sapiens, UniProt P05164).
T1 construct: purified from human polynuclear leukocytes; purchased Calbiochem/EMD Biosciences; host or cells: human polynuclear leukocytes (natural source)
Briefly: MPO Amplex Red Activity Assay. To be noted: Table 1, 2 μM H2O2, pH 7.4. Format: biochemical. The method, then:
MPO Amplex Red Activity Assay.
MPO peroxidase activity was measured by monitoring the formation of resorufin generated from the oxidation of Amplex Red (10-Acetyl-3,7-dihydroxyphenoxazine) (Invitrogen, Carlsbad, Calif.) by MPO (Gomes, Fernandes et al. 2005). Assay mixtures (100 μL total volume) contained 50 mM NaPi pH 7.4, 150 mM NaCl, 1 mM DTPA (diethylenetriaminepentaacetic acid), 2% DMSO, 2 μM H2O2, 30 μM Amplex Red and the reaction was initiated by the addition of […] (purified from human polynuclear leukocytes and purchased from Calbiochem/EMD Biosciences, Gibbstown, N.J.). All assays were performed in 96-well, half-area, black, nonbinding surface, polystyrene plates (Corning) and the production of resorufin (excitation 530 nm, emission 580 nm) was monitored every 20 sec on a Spectramax M2 Microplate Spectrophotometer (Molecular Devices, Palo Alto, Calif.) equipped with Softmax Pro software (Molecular Devices, Palo Alto, Calif.). Reactions to determine the background reaction rate consisted of all assay components and 4 μL of 500 unit/mL bovine catalase (Sigma) in 50 mM KPi pH 7.0. The background rate was subtracted from each reaction progress curve. All data was analyzed using non-linear regression analysis in Microsoft Excel and Kaleidagraph (Synergy Software).
To determine inhibitor potency (kinact/KI) against MPO, the first 600 sec of the reaction progress curves were fit to equation 1, where Vo is the initial rate in RFU/sec and t is time in seconds, to obtain the first order rate constant for enzyme inactivation (kobs) at each inhibitor concentration.
[formula] Equation 1 is a variation of the standard equation for slow binding inhibition where the steady state velocity (Vs) is set to zero. Each kobs value was corrected for auto-inactivation of the enzyme by subtracting the kobs value for the uninhibited reaction. The corrected kobs values were then plotted versus inhibitor concentration ([I]) and fit to equation 2
[formula] where kinact is the maximal rate of inactivation and KI is the inhibitor concentration that yields half the rate of maximal inactivation (Copeland 2005).
Table 1 and (1A) below provides the myeloperoxidase inhibitory activity for the Examples below in accordance with the above-described assay.
As to `COCCn1c(-c2ccccc2O)cc(=O)[nH]c1=S` [Example 288, 6-(2-hydroxyphenyl)-1-(2-methoxyethyl)-2-thioxo-2,3-dihydropyrimidin-4(1H)-one], the “MPO kinact/Ki” value is listed as 4230 1/s per M.

`COCCc1ccccc1-c1cc(=O)[nH]c(=S)n1CCO` [Example 271, 1-(2-hydroxyethyl)-6-[2-(2-methoxyethyl)phenyl]-2-thioxo-2,3-dihydropyrimidin-4(1H)-one]: the “MPO kinact/Ki” value is 2010 1/s per M.

On to `COc1ccc(-c2cc(=O)[nH]c(=S)n2CCNC(=N)NC#N)c(OC)c1` [Example 136, 1-cyano-3-{2-[6-(2,4-dimethoxyphenyl)-4-oxo-2-thioxo-3,4-dihydropyrimidin-1(2H)-yl]ethyl}guanidine], for which the “MPO kinact/Ki” value is reported as 1920 1/s per M.

With `COCCn1c(-c2cccc3sccc23)cc(=O)[nH]c1=S` [Example 74, 6-(1-benzothien-4-yl)-1-(2-methoxyethyl)-2-thioxo-2,3-dihydropyrimidin-4(1H)-one], the “MPO kinact/Ki” value was 14400 1/s per M.

Turning to `COCCn1c(-c2cc(C(C)C)c(F)cc2OC)cc(=O)[nH]c1=S` [Example 344, 6-(4-fluoro-5-isopropyl-2-methoxyphenyl)-1-(2-methoxyethyl)-2-thioxo-2,3-dihydropyrimidin-4(1H)-one], the “MPO kinact/Ki” value is 8480 1/s per M.

Turning to `COc1ncc(Cl)cc1-c1cc(=O)[nH]c(=S)n1CCO` [Example 65, 6-(5-chloro-2-methoxypyridin-3-yl)-1-(2-hydroxyethyl)-2-thioxo-2,3-dihydropyrimidin-4(1H)-one], the “MPO kinact/Ki” value was 7940 1/s per M.

As for `COCCn1c(-c2ccc(F)cc2)cc(=O)[nH]c1=S` [Example 290, 6-(4-fluorophenyl)-1-(2-methoxyethyl)-2-thioxo-2,3-dihydropyrimidin-4(1H)-one], the “MPO kinact/Ki” value was 1890 1/s per M.

As to `COCCn1c(-c2cccs2)cc(=O)[nH]c1=S` [Example 282, 1-(2-methoxyethyl)-6-(2-thienyl)-2-thioxo-2,3-dihydropyrimidin-4(1H)-one], the “MPO kinact/Ki” value was 1180 1/s per M.

On to `COc1cc2ccccc2cc1-c1cc(=O)[nH]c(=S)n1CCO` [Example 100, 1-(2-hydroxyethyl)-6-(3-methoxy-2-naphthyl)-2-thioxo-2,3-dihydropyrimidin-4(1H)-one], for which the “MPO kinact/Ki” value is 16100 1/s per M.

On to `COCCn1c(-c2cccn2C)cc(=O)[nH]c1=S` [Example 281, 1-(2-methoxyethyl)-6-(1-methyl-1H-pyrrol-2-yl)-2-thioxo-2,3-dihydropyrimidin-4(1H)-one], for which the “MPO kinact/Ki” value is on record as 1060 1/s per M.

On to `COc1ccc(Cl)cc1-c1cc(=O)[nH]c(=S)n1CCCN=C(N)N` [Example 133, 2-{3-[6-(5-chloro-2-methoxyphenyl)-4-oxo-2-thioxo-3,4-dihydropyrimidin-1(2H)-yl]propyl} guanidine], for which the “MPO kinact/Ki” value is given as 15300 1/s per M.

In the case of `COc1ccc(-c2cc(=O)[nH]c(=S)n2CCCN(C)C)c(OC)c1` [Example 220, 6-(2,4-dimethoxyphenyl)-1-[3-(dimethylamino)propyl]-2-thioxo-2,3-dihydropyrimidin-4(1H)-one], the “MPO kinact/Ki” value is listed as 2420 1/s per M.

Regarding `COc1ccc(-c2cc(=O)[nH]c(=S)n2CC2CNCCO2)c(OC)c1` (stereo not shown) [Example 238, 6-(2,4-dimethoxyphenyl)-1-(morpholin-2-ylmethyl)-2-thioxo-2,3-dihydropyrimidin-4(1H)-one hydrochloride], the “MPO kinact/Ki” value is on record as 8740 1/s per M.

As for `COc1ccc(-c2cc(=O)[nH]c(=S)n2C[C@H](O)CO)c(OC)c1` [Example 203, 1-[(2S)-2,3-dihydroxypropyl]-6-(2,4-dimethoxyphenyl)-2-thioxo-2,3-dihydropyrimidin-4(1H)-one], the “MPO kinact/Ki” value is given as 3450 1/s per M.

On to `NCCCn1c(-c2cccc3[nH]ccc23)cc(=O)[nH]c1=S` [Example 30, 1-(3-aminopropyl)-6-(1H-indol-4-yl)-2-thioxo-2,3-dihydropyrimidin-4(1H)-one trifluoroacetate], for which the “MPO kinact/Ki” value is 5870 1/s per M.

On to `COc1ccc(-c2cc(=O)[nH]c(=S)n2CCN2CCOCC2)c(OC)c1` [Example 251, 6-(2,4-dimethoxyphenyl)-1-(2-morpholin-4-ylethyl)-2-thioxo-2,3-dihydropyrimidin-4(1H)-one], for which the “MPO kinact/Ki” value is 68 1/s per M.

On to `COc1ccc(C)cc1-c1cc(=O)[nH]c(=S)n1CCCN=C(N)N` [Example 119, 2-{3-[6-(2-methoxy-5-methylphenyl)-4-oxo-2-thioxo-3,4-dihydropyrimidin-1(2H)-yl]propyl} guanidine], for which the “MPO kinact/Ki” value is reported as 25600 1/s per M.

For the compound `COCCn1c(-c2cc3c(cc2OC)CCCC3)cc(=O)[nH]c1=S` [Example 341, 1-(2-methoxyethyl)-6-(3-methoxy-5,6,7,8-tetrahydronaphthalen-2-yl)-2-thioxo-2,3-dihydropyrimidin-4(1H)-one], the “MPO kinact/Ki” value was 14300 1/s per M.

Turning to `CSc1ccccc1-c1cc(=O)[nH]c(=S)n1CCO` [Example 24, 1-(2-hydroxyethyl)-6-[2-(methylthio)phenyl]-2-thioxo-2,3-dihydropyrimidin-4(1H)-one], the “MPO kinact/Ki” value is 7640 1/s per M.

For the compound `COc1ccc(-c2cc(=O)[nH]c(=S)n2Cc2cccnc2)c(OC)c1` [Example 231, 6-(2,4-dimethoxyphenyl)-1-(pyridin-3-ylmethyl)-2-thioxo-2,3-dihydropyrimidin-4(1H)-one], the “MPO kinact/Ki” value is 1910 1/s per M.

In the case of `COc1ccc(-c2cc(=O)[nH]c(=S)n2CC(N)=O)c(OC)c1` [Example 174, 2-[6-(2,4-dimethoxyphenyl)-4-oxo-2-thioxo-3,4-dihydropyrimidin-1(2H)-yl]acetamide], the “MPO kinact/Ki” value is 10500 1/s per M.

Take `COc1cc(-c2cc(=O)[nH]c(=S)n2CCO)c(OC)cc1C` [Example 273, 6-(2,5-dimethoxy-4-methylphenyl)-1-(2-hydroxyethyl)-2-thioxo-2,3-dihydropyrimidin-4(1H)-one]: the “MPO kinact/Ki” value is 8180 1/s per M.

Consider `CCOc1ccc(-c2cc(=O)[nH]c(=S)n2CCOC)cn1` [Example 313, 6-(6-ethoxypyridin-3-yl)-1-(2-methoxyethyl)-2-thioxo-2,3-dihydropyrimidin-4(1H)-one], for which the “MPO kinact/Ki” value is given as 973 1/s per M.

Turning to `COCCn1c(-c2cc(OC)c(Cl)cc2OC)cc(=O)[nH]c1=S` [Example 233, 6-(4-chloro-2,5-dimethoxyphenyl)-1-(2-methoxyethyl)-2-thioxo-2,3-dihydropyrimidin-4(1H)-one], the “MPO kinact/Ki” value was 2510 1/s per M.

Still in this experiment, the particulars now being: Table 1A, 2 μM H2O2, pH 7.4.
As to `COc1ccc(OC)c(-c2cc(=O)[nH]c(=S)n2CCNC(=O)CN)c1` [Example 352, N-{2-[6-(2,5-dimethoxyphenyl)-4-oxo-2-thioxo-3,4-dihydropyrimidin-1(2H)-yl]ethyl}glycinamide], the “MPO kinact/Ki” value is given as 6720 1/s per M.

Regarding `COc1ccc(OCCO)c(-c2cc(=O)[nH]c(=S)n2CC(=O)NCCN)c1` [Example 378, N-(2-aminoethyl)-2-{6-[2-(2-hydroxyethoxy)-5-methoxyphenyl]-4-oxo-2-thioxo-3,4-dihydropyrimidin-1(2H)-yl}acetamide], the “MPO kinact/Ki” value is recorded as 5040 1/s per M.

For the compound `COc1ccc(-c2cc(=O)[nH]c(=S)n2CC(=O)N(C)CCN)c(OC)c1` [Example 390, N-(2-aminoethyl)-2-[6-(2,4-dimethoxyphenyl)-4-oxo-2-thioxo-3,4-dihydropyrimidin-1(2H)-yl]-N-methylacetamide], the “MPO kinact/Ki” value was 6250 1/s per M.

With `NC(=O)Cn1c(-c2cccc3c2OCC3)cc(=O)[nH]c1=S` [Example 364, 2-[6-(2,3-dihydro-1-benzofuran-7-yl)-4-oxo-2-thioxo-3,4-dihydropyrimidin-1(2H)-yl]acetamide], the “MPO kinact/Ki” value is 6580 1/s per M.

With `COc1ccc(Cl)cc1-c1cc(=O)[nH]c(=S)n1C[C@H](O)CO` [Example 359, 6-(5-chloro-2-methoxyphenyl)-1-[(2S)-2,3-dihydroxypropyl]-2-thioxo-2,3-dihydropyrimidin-4(1H)-one], the “MPO kinact/Ki” value is on record as 2660 1/s per M.

As for `COc1cccc(-c2cc(=O)[nH]c(=S)n2CC(N)=O)c1OC` [Example 416, 2-[6-(2,3-dimethoxyphenyl)-4-oxo-2-thioxo-3,4-dihydropyrimidin-1(2H)-yl]acetamide], the “MPO kinact/Ki” value was 4480 1/s per M.

As for `COc1ccc(F)cc1-c1cc(=O)[nH]c(=S)n1CC(=O)NCCN` [Example 371, N-(2-aminoethyl)-2-[6-(5-fluoro-2-methoxyphenyl)-4-oxo-2-thioxo-3,4-dihydropyrimidin-1(2H)-yl]acetamide], the “MPO kinact/Ki” value is 4570 1/s per M.

Values taken from patent US9399626B2, “2-thiopyrimidinones” (Pfizer Inc., priority 2011, dated 2016).
